Each structure is given as a SMILES string.

Holding throughout (assay type): cell-based
The target of assay [1] is T1, human TLR9 (Homo sapiens, UniProt Q9NR96).
T1 construct: host or cells: HEK-Blue cells
T1 sequence (Q9NR96 26-1032): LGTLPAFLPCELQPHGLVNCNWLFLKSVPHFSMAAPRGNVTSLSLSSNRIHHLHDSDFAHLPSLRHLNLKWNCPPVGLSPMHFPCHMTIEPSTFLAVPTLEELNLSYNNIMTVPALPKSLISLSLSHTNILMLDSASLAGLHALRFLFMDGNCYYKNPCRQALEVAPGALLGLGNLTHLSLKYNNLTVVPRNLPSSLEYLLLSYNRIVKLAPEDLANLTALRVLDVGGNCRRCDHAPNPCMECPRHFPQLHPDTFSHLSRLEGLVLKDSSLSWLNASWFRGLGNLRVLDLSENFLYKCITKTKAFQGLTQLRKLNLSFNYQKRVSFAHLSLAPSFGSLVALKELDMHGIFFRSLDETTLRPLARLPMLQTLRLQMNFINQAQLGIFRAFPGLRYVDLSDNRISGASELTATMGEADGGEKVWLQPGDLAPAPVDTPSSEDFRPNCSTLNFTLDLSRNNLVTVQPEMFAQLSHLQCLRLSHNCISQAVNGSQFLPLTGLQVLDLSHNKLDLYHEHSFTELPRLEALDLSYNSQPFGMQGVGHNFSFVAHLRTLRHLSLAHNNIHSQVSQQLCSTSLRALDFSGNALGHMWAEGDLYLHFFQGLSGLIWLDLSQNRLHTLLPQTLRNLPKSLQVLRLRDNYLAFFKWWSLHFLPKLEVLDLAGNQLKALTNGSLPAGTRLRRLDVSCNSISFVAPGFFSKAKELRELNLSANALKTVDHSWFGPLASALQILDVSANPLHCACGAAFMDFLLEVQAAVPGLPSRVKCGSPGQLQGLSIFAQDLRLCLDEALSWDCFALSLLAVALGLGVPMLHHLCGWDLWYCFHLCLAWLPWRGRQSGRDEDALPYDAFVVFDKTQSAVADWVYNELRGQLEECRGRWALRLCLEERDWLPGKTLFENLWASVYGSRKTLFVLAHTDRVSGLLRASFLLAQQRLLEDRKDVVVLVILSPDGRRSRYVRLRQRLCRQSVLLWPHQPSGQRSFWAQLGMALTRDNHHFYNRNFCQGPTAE
The assay is described as follows: TLR9 inhibition reporter assay (HEK-Blue cells, SEAP reporter, ODN2006 stimulation). The settings on record: HEK-Blue cells overexpressing human TLR9, SEAP reporter, ODN2006 5 nM. An outline of the steps:
(§1)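 Ligand levels: TLR7 gardiquimod 7.5 μM, TLR8 R848 15.9 μM, TLR9 ODN2006 5 nM, added after 30 min room-temperature compound pre-incubation at 0.05 nM-50 μM. Reporter SEAP read with HEK-Blue Detection reagent after 22 h, 37° C. Inhibition expressed as % reduction relative to agonist-plus-DMSO and known-inhibitor controls.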

Assay [2] concerns the target T2, human TLR8 (Homo sapiens, UniProt Q9NR97).
T2 construct: host or cells: HEK-Blue cells
T2 sequence (Q9NR97 27-1041): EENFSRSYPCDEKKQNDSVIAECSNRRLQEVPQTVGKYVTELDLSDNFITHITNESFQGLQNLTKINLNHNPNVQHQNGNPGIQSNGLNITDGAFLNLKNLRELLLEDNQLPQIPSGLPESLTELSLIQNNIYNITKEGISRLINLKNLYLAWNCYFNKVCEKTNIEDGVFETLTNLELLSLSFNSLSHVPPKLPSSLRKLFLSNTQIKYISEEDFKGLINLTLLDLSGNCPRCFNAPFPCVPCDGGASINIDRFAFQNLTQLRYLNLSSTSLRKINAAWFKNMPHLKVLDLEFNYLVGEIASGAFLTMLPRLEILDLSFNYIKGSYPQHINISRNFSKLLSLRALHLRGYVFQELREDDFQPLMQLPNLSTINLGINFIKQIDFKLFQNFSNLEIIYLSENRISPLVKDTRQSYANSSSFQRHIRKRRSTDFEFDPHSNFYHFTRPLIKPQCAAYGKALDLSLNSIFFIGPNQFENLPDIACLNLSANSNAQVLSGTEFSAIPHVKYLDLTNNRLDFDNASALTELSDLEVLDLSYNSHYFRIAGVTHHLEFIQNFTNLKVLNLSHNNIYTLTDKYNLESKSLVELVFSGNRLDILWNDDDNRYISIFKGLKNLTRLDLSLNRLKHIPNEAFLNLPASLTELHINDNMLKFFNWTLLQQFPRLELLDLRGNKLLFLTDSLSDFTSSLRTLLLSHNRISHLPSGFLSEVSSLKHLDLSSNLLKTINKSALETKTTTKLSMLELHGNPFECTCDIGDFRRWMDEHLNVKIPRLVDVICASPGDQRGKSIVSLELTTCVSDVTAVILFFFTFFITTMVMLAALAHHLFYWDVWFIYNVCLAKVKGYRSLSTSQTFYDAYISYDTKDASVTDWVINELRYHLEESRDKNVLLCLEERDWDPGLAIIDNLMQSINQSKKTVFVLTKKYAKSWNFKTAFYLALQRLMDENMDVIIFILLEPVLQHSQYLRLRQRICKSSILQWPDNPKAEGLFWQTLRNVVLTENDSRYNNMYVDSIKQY
Description: TLR8 inhibition reporter assay (HEK-Blue cells, SEAP reporter, R848 stimulation). The settings on record: HEK-Blue cells overexpressing human TLR8, SEAP reporter, R848 15.9 μM. An outline of the steps:
as §1

Assay [3] has as its target T3, human TLR7 (Homo sapiens, UniProt Q9NYK1).
T3 construct: host or cells: HEK-Blue cells
T3 sequence (Q9NYK1 27-1049): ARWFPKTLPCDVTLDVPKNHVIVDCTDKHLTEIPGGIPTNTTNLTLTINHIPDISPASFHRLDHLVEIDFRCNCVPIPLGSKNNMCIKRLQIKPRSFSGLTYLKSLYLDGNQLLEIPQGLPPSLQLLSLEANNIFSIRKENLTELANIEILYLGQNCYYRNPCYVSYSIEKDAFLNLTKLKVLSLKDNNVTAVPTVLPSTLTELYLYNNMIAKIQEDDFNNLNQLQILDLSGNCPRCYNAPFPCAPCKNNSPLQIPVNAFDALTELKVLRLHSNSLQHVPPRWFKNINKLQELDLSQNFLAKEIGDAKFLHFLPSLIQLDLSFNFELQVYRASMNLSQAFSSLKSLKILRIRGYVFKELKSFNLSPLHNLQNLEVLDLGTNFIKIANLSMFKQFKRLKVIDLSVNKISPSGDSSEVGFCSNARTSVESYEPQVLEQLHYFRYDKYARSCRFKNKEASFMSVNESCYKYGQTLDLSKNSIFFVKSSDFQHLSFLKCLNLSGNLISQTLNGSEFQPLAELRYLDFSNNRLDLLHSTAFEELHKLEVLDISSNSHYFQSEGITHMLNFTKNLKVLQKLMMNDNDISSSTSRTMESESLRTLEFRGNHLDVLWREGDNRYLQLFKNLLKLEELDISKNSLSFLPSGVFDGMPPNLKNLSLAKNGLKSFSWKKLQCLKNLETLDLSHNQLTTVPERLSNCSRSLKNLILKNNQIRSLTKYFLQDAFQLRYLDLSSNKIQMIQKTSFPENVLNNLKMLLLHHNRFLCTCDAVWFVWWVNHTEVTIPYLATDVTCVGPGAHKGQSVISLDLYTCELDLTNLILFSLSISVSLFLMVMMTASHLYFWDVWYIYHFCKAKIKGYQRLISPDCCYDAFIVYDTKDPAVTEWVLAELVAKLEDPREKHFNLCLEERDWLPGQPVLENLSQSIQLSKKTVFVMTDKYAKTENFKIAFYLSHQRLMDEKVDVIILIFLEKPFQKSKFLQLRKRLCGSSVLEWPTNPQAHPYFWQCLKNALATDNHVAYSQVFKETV
The assay is described as follows: TLR7 inhibition reporter assay (HEK-Blue cells, SEAP reporter, gardiquimod stimulation). The settings on record: HEK-Blue cells overexpressing human TLR7, SEAP reporter, gardiquimod 7.5 μM. Summed up: as §1

Regarding `COc1cc(-c2[nH]c3ccc(C4CN(C)CCO4)cc3c2C(C)C)cn2ncnc12` (stereo not drawn) [Example 299], the IC50 came out at 5570 nM in assay [1], 3.3 nM in assay [2] and 2 nM in assay [3].
In the case of `COc1cc(-c2[nH]c3ccc(C4CCCNC4)cc3c2C(C)C)cn2ncnc12` (single isomer, unassigned) [Example 182], the IC50 turned out to be 2370 nM in assay [1], 5.3 nM in assay [2] and 1 nM in assay [3].
`Cc1cc(-c2[nH]c3ccc(C4CCC(NC5CC5)CC4)cc3c2C(C)C)cn2ncnc12` (single isomer, unassigned) [Example 16]: the results for the IC50 in assay [1], in assay [2] and in assay [3] were 661 nM, 0.47 nM and 0.15 nM, respectively.
Take `Cc1c(-c2[nH]c3ccc(C4CCC(NCC(=O)N(C)C)CC4)cc3c2C(C)C)cn2cnnc2c1C` (stereo not drawn) [Example 518]: the figures for the IC50 in assay [1], in assay [2] and in assay [3] were 1310 nM, 16 nM and 2 nM, respectively.
For `Cc1c(-c2[nH]c3ccc(C4CCCN(CC(=O)N(C)C)C4)cc3c2C(C)C)cn2ncnc2c1C` (stereo not drawn) [Example 230], in that order: 5790 nM, 13 nM and 13 nM.
Turning to `COCCN1CCN(C2CCC(c3ccc4[nH]c(-c5cc(OC)c6ncnn6c5)c(C(C)C)c4c3)CC2)CC1` (single isomer, unassigned) [Example 39], the IC50 amounted to 2230 nM in assay [1], 5.8 nM in assay [2] and 9 nM in assay [3].
For `COc1cc(-c2[nH]c3ccc(C4CCC(NC(=O)CNCC(C)(C)O)CC4)cc3c2C(C)C)cn2ncnc12` (stereo not drawn) [Example 140], in that order: 14200 nM, 5.6 nM and 0.7 nM.
Consider `Cc1c(-c2[nH]c3ccc(C4CC(N(C)C(=O)CN(C)C)C4)cc3c2C(C)C)cn2ncnc2c1C` (stereo not drawn) [Example 584], for which the values for the IC50 in assay [1], in assay [2] and in assay [3] were 5650 nM, 3.8 nM and 2 nM, respectively.
Regarding `Cc1cc(-c2[nH]c3ccc(CCN4CCCCC4)cc3c2C(C)C)cn(C)c1=O` [Example 409], the IC50 in assay [1] was determined as 15600 nM; in assay [2] it was 3 nM; in assay [3], 23 nM.
As to `Cc1cc(-c2[nH]c3ccc(C4CN(CC(C)(C)O)CCO4)cc3c2C(C)C)cn2ncnc12` (stereo not drawn) [Example 355, 1-(2-(3-isopropyl-2-(8-methyl-[1,2,4]triazolo[1,5-a]pyridin-6-yl)-1H-indol-5-yl)morpholino)-2-methylpropan-2-ol], the IC50 was 28900 nM in assay [1], 1.4 nM in assay [2] and 5 nM in assay [3].
For `Cc1c(-c2[nH]c3ccc(C4CC5CNCC5C4)cc3c2C(C)C)cn2cnnc2c1C` (stereo not drawn) [Example 519], the IC50 in assay [1] stood at 2510 nM; in assay [2], 127 nM; in assay [3], 6 nM.
Regarding `COc1cc(-c2[nH]c3ccc(C4CCC(N5CCC[C@H]5C(N)=O)CC4)cc3c2C(C)C)cn2ncnc12` (stereo partly drawn) [Example 31], the IC50 is 2110 nM in assay [1], 6.1 nM in assay [2] and 1 nM in assay [3].
For `Cc1cc(-c2[nH]c3ccc([C@H]4C[C@H]4C(=O)N4CC5CC4CN5)cc3c2C(C)C)ccn1` (stereo partly drawn) [Example 454], in that order: 363 nM, 5.5 nM and 96 nM.
The corresponding values for `COc1cc(-c2[nH]c3ccc(CCC4CN(C(=O)CN(C)C)C4)cc3c2C(C)C)cn2ncnc12` [Example 439] are 2240 nM, 6.3 nM and 1 nM.
In the case of `COCCN1CC(c2ccc3[nH]c(-c4cc(C)c5ncnn5c4)c(C(C)C)c3c2)OCC1(C)C` (stereo not drawn) [Example 383], the figures for the IC50 in assay [1], in assay [2] and in assay [3] were 13700 nM, 41 nM and 9 nM, respectively.
As for `COc1cc(-c2[nH]c3ccc(C4CCCN(CC(=O)N(C)C)C4)cc3c2C(C)C)cn2ncnc12` (stereo not drawn) [Example 222, 2-(3-(3-isopropyl-2-(8-methoxy-[1,2,4]triazolo[1,5-a]pyridin-6-yl)-1H-indol-5-yl)piperidin-1-yl)-N,N-dimethylacetamide], the IC50 in assay [1] was 3100 nM; in assay [2] it was 9.2 nM; in assay [3], 2 nM.
For `CNCC(=O)N1CCCC(c2ccc3[nH]c(-c4cc(OC)c5ncnn5c4)c(C(C)C)c3c2)C1` (stereo not drawn) [Example 212], in that order: 8470 nM, 13 nM and 3 nM.
For `Cc1cc(-c2[nH]c3ccc([C@@H]4C[C@H]4CN4CCCC4)cc3c2C(C)C)ccn1` [Example 464], in that order: 271 nM, 3.4 nM and 28 nM.
Turning to `Cc1c(-c2[nH]c3ccc(C4CCC(N(C)C)CC4)cc3c2C(C)C)cn2ncnc2c1C` (stereo not drawn) [Example 111], the values for the IC50 in assay [1], in assay [2] and in assay [3] were 4100 nM, 2.6 nM and 1 nM, respectively.
For `Cc1c(-c2[nH]c3ccc(C4CC(N)C4)cc3c2C(C)C)cn2ncnc2c1C` (stereo not drawn) [Example 541], in that order: 5740 nM, 0.79 nM and 2 nM.

The record behind these values is patent US11878975B2, “Substituted indole compounds useful as TLR inhibitors” (BRISTOL-MYERS SQUIBB COMPANY, priority 2017, dated 2024).
